For assay [1], the system named is Brazilian crabgrass. In words: Test E postemergence. Type of assay: in vivo, Digitaria horizontalis. The source says:
Seeds of plant species selected from corn (Zea mays), soybean (Glycine max), velvetleaf (Abutilon theophrasti), lambsquarters (Chenopodium album), wild poinsettia (Euphorbia heterophylla), palmer pigweed (Amaranthus palmeri), waterhemp (common waterhemp, Amaranthus rudis), surinam grass (Brachiaria decumbens), large (Lg) crabgrass (Digitaria sanguinalis), Brazilian crabgrass (Digitaria horizontalis), fall panicum (Panicum dichotomiflorum), giant foxtail (Setaria faberii), green foxtail (Setaria viridis), goosegrass (Eleusine indica), johnsongrass (Sorghum halepense), ragweed (common ragweed, Ambrosia elatior), barnyardgrass (Echinochloa crus-galli), sandbur (southern sandbur, Cenchrus echinatus), arrowleaf sida (Sida rhombifolia), Italian ryegrass (Lolium multiflorum), dayflower (Virginia (VA) dayflower, Commelina virginica), field bindweed (Convolvulus arvensis), morningglory (Ipomoea coccinea), nightshade (eastern black nightshade, Solanum ptycanthum), kochia (Kochia scoparia), yellow nutsedge (Cyperus esculentus), cocklebur (common cocklebur, Xanthium strumarium), smartweed (ladysthumb smartweed, and hairy beggarticks (Bidens pilosa), were planted into a silt loam soil and treated preemergence with test chemicals formulated in a non-phytotoxic solvent mixture which included a surfactant.
At the same time, plants from these crop and weed species and also horseweed (Canada horseweed, Conyza canadensis), waterhemp_RES1, (ALS & Triazine resistant common waterhemp, Amaranthus rudis), and waterhemp_RES2, (ALS & HPPD resistant common waterhemp, Amaranthus rudis) were planted in pots containing Redi-Earth® planting medium (Scotts Company, 14111 Scottslawn Road, Marysville, Ohio 43041) comprising spaghnum peat moss, vermiculite, wetting agent and starter nutrients were treated with postemergence applications of test chemicals formulated in the same manner. Plants ranged in height from 2 to 18 cm for postemergence treatments (1- to 4-leaf stage). Treated plants and controls were maintained in a greenhouse for 14 to 21 days, after which time all species were compared to controls and visually evaluated. Plant response ratings, summarized in Table E, are based on a scale of 0 to 100 where 0 is no effect and 100 is complete control. A dash (-) response means no test result.

The subject of assay [2] is cocklebur. In words: Test E preemergence. It is filed as in vivo, Xanthium strumarium. As to conditions: 16 g ai/ha, scale 0 to 100 (0 no effect, 100 complete control). Put shortly:
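Compound in a non-phytotoxic solvent mixture with surfactant was applied preemergence to seeds in silt loam soil, or postemergence to plants 2 to 18 cm tall grown in peat-based potting medium. Plants were kept in a greenhouse for 14 to 21 days, then rated visually against untreated controls on a 0 (no effect) to 100 (complete control) scale.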

Structures are written as SMILES.

Data on one compound can be found in US9695155B2, “Herbicidal substituted pyrimidinyloxy benzene compounds” (E. I. DU PONT DE NEMOURS AND COMPANY, priority 2013, dated 2017).

Turning to `FC(F)(F)c1cnn(-c2ccccc2Oc2ncc(Cl)cn2)c1` [Compound 16], the “Plant response rating, Crabgrass, Brazil” value in assay [1] (Postemergence, 31 g ai/ha, scale 0 to 100) turned out to be 0; in assay [1] (Postemergence, 62 g ai/ha, scale 0 to 100), 10; in assay [1] (Postemergence, 125 g ai/ha, scale 0 to 100), 30; in assay [1] (Postemergence, 250 g ai/ha, scale 0 to 100) it was 40; in assay [1] (postemergence, 16 g ai/ha, scale 0 to 100, 0 no effect, 100 complete control), 0. Also, the “Cocklebur plant response rating” value in assay [2] is reported as 0.
